# In US10935560B2, “Method and kit for identifying lupus anticoagulant (LA) associated with antiphospholipid syndrome” (Instrumentation Laboratory Company, priority 2016, dated 2021):
# “Also recorded” adds a separate entry of the source.
# Key:
# Format in all cases: biochemical, human
# [1] = test system: LA negative sample (platelet poor NPP); experiment: APTT-based silica clotting time (SCT Screen / SCT Confirm) assay, 1:1 mixing study; conditions: for Screen-to-Confirm Ratio (R) of SCT Assay: LA negative sample
# Excerpt: (§1) The results of the LA screening assays are expressed by Screen Ratio (Rs), an assay done in the presence of low levels of phospholipid, Confirm Ratio (Re), an assay done in the presence of elevated levels of phospholipid, Screen-to-Confirm Ratio (R) and Normalized Screen-to-Confirm Ratio (NR) defined as follows: […]
# (§2) For each of the assays above, irrespective of the clotting inhibitor used in the assay, the measured screen assay clotting time of a patient sample is compared to the measured screen assay clotting time of normal platelet poor plasma and expressed as a ratio (Rs). Additionally, the measured confirm assay clotting time of a patient sample is compared to the measured confirm assay clotting time of normal platelet poor plasma and expressed as a ratio (Rc). A normalized ratio (NR) is expressed as Rs/Rc. The NR is compared to a cutoff ratio established from normal, healthy subjects.
# (§3) D-phenylalanyl-1-prolyl-1-arginine-chloromethyl ketone (PPACK) is a synthetic peptide that irreversibly binds to the catalytic site of thrombin. Referring to FIGS. 1-3, the use of PPACK in an SCT assay is shown where a plasma test sample was mixed with a LA negative plasma sample pool in a 1:1 ratio during testing (i.e., in a mixing study setting). By a mixing study, clotting factors that are present in normal plasma are added to the test plasma suspected of having a coagulation disorder.
# (§4) Referring to FIGS. 1A-B, while the effect of PPACK on SCT Screen and SCT Confirm is similar for the LA negative sample, PPACK has much greater impact on SCT Screen than on SCT Confirm for the LA positive samples.
# [2] = test system: patient plasma samples (LA negative, factor deficient, LA positive); experiment: HemosIL dRVVT Screen and dRVVT Confirm in the presence of PPACK, 1:1 mixing study setting, patient samples; conditions: 350 nM PPACK
# Excerpt: as §1
# as §2, with “subjects. […]” for “subjects.”
# The study reported the normalized ratio correctly for all plasma samples and addressed issues with factor deficiency (Table 2).
# [3] = test system: LA positive plasma sample; experiment: APTT-based silica clotting time (SCT Screen / SCT Confirm) assay, 1:1 mixing study
# Excerpt: as §1, §2, §3, §4
# The effect of PPACK on LA detection is further analyzed on the LA positive sample diluted with LA negative sample in different ratios (1:1 and 1:3 of LA positive: LA Negative). When the LA positive sample was diluted 4-fold with LA negative sample, the LA was not detectable in the absence of PPACK (NR: […]) thereby underscoring the increased sensitivity of the method disclosed herein.
# [4] = test system: LA positive plasma sample; experiment: dRVVT Screen / dRVVT Confirm test, 1:1 mixing study; conditions: for NR of dRVVT test: 1000 ng/ml PPACK
# Excerpt: as §1, §2
# [5] = test system: normal pooled plasma (NPP); experiment: as above
# Excerpt: as §1, §2
# [6] = sample 0114 LA NEG, LA Negative Pool
# [7] = sample 0114 S03, FVIIIDef (con)
# [8] = sample 0114 S04, FVIIIDef (con)
# [9] = sample 0114 S05, FVIII (con)/vWF Def
# [10] = sample 0114 S06, FVIII (con)/vWF Def
substance,measurement,setting,value
D-phenylalanyl-1-prolyl-1-arginine-chloromethyl ketone [PPACK],Screen-to-Confirm Ratio (R) of SCT Assay,[1]; 100 nM PPACK (0.81 at 0 nM),0.83
same,Screen-to-Confirm Ratio (R) of SCT Assay,[1]; 1000 nM PPACK (0.81 at 0 nM),0.78
same,Change of Screen-to-Confirm Ratio of SCT Assay,"[1]; NPP / LA negative sample, increasing PPACK concentrations",remained the same; also recorded: decreased slightly
same,Confirm,[2]; [6],50.4 s
same,Confirm (Rc),[2]; [6],1.00
same,S/C (NR),[2]; [6],1.00
same,S/C (R),[2]; [6],0.98
same,Screen,[2]; [6],49.6 s
same,Screen (Rs),[2]; [6],1.00
same,Confirm,"[2]; sample 0114 S01, FVDef (con)",62.8 s
same,Confirm (Rc),"[2]; sample 0114 S01, FVDef (con)",1.25
same,S/C (NR),"[2]; sample 0114 S01, FVDef (con)",1.02
same,S/C (R),"[2]; sample 0114 S01, FVDef (con)",1.01
same,Screen,"[2]; sample 0114 S01, FVDef (con)",63.3 s
same,Screen (Rs),"[2]; sample 0114 S01, FVDef (con)",1.28
same,Confirm,"[2]; sample 0114 S02, FVDef (con)",54.2 s
same,Confirm (Rc),"[2]; sample 0114 S02, FVDef (con)",1.08
same,S/C (NR),"[2]; sample 0114 S02, FVDef (con)",0.88
same,S/C (R),"[2]; sample 0114 S02, FVDef (con)",0.87
same,Screen,"[2]; sample 0114 S02, FVDef (con)",46.9 s
same,Screen (Rs),"[2]; sample 0114 S02, FVDef (con)",0.95
same,Confirm,[2]; [7],47.9 s
same,Confirm (Rc),[2]; [7],0.95
same,S/C (NR),[2]; [7],1.05
same,S/C (R),[2]; [7],1.04
same,Screen,[2]; [7],49.7 s
same,Screen (Rs),[2]; [7],1.00
same,Confirm,[2]; [8],48.5 s
same,Confirm (Rc),[2]; [8],0.96
same,S/C (NR),[2]; [8],1.03
same,S/C (R),[2]; [8],1.02
same,Screen,[2]; [8],49.3 s
same,Screen (Rs),[2]; [8],0.99
same,Confirm,[2]; [9],49.2 s
same,Confirm (Rc),[2]; [9],0.98
same,S/C (NR),[2]; [9],1.00
same,S/C (R),[2]; [9],0.98
same,Screen,[2]; [9],48.4 s
same,Screen (Rs),[2]; [9],0.98
same,Confirm,[2]; [10],48.9 s
same,Confirm (Rc),[2]; [10],0.97
same,S/C (NR),[2]; [10],1.01
same,S/C (R),[2]; [10],0.99
same,Screen,[2]; [10],48.6 s
same,Screen (Rs),[2]; [10],0.98
same,Confirm,"[2]; sample 0114 S07, FIXDef (con)",50.5 s
same,Confirm (Rc),"[2]; sample 0114 S07, FIXDef (con)",1.00
same,S/C (NR),"[2]; sample 0114 S07, FIXDef (con)",0.97
same,S/C (R),"[2]; sample 0114 S07, FIXDef (con)",0.95
same,Screen,"[2]; sample 0114 S07, FIXDef (con)",41.1 s
same,Screen (Rs),"[2]; sample 0114 S07, FIXDef (con)",0.97
same,Confirm,"[2]; sample 0114 S08, FIXDef (con)",48.9 s
same,Confirm (Rc),"[2]; sample 0114 S08, FIXDef (con)",0.97
same,S/C (NR),"[2]; sample 0114 S08, FIXDef (con)",1.01
same,S/C (R),"[2]; sample 0114 S08, FIXDef (con)",0.99
same,Screen,"[2]; sample 0114 S08, FIXDef (con)",48.5 s
same,Screen (Rs),"[2]; sample 0114 S08, FIXDef (con)",0.98
same,Confirm,"[2]; sample 0114 S09, FXDef (con)",59.2 s
same,Confirm (Rc),"[2]; sample 0114 S09, FXDef (con)",1.17
same,S/C (NR),"[2]; sample 0114 S09, FXDef (con)",1.04
same,S/C (R),"[2]; sample 0114 S09, FXDef (con)",1.03
same,Screen,"[2]; sample 0114 S09, FXDef (con)",60.7 s
same,Screen (Rs),"[2]; sample 0114 S09, FXDef (con)",1.22
same,Confirm,"[2]; sample 0114 S10, FXDef (con)",51.4 s
same,Confirm (Rc),"[2]; sample 0114 S10, FXDef (con)",1.02
same,S/C (NR),"[2]; sample 0114 S10, FXDef (con)",1.01
same,S/C (R),"[2]; sample 0114 S10, FXDef (con)",0.99
same,Screen,"[2]; sample 0114 S10, FXDef (con)",51.1 s
same,Screen (Rs),"[2]; sample 0114 S10, FXDef (con)",1.03
same,Confirm,"[2]; sample 0114 S11, FXIDef (con)",49.7 s
same,Confirm (Rc),"[2]; sample 0114 S11, FXIDef (con)",0.99
same,S/C (NR),"[2]; sample 0114 S11, FXIDef (con)",1.00
same,S/C (R),"[2]; sample 0114 S11, FXIDef (con)",0.98
same,Screen,"[2]; sample 0114 S11, FXIDef (con)",48.8 s
same,Screen (Rs),"[2]; sample 0114 S11, FXIDef (con)",0.98
same,Confirm,"[2]; sample 0114 S12, FXIDef (con)",47.7 s
same,Confirm (Rc),"[2]; sample 0114 S12, FXIDef (con)",0.95
same,S/C (NR),"[2]; sample 0114 S12, FXIDef (con)",1.00
same,S/C (R),"[2]; sample 0114 S12, FXIDef (con)",0.98
same,Screen,"[2]; sample 0114 S12, FXIDef (con)",46.8 s
same,Screen (Rs),"[2]; sample 0114 S12, FXIDef (con)",0.94
same,Confirm,"[2]; sample 0114 S13, FXIIDef (con)",45.3 s
same,Confirm (Rc),"[2]; sample 0114 S13, FXIIDef (con)",0.90
same,S/C (NR),"[2]; sample 0114 S13, FXIIDef (con)",1.01
same,S/C (R),"[2]; sample 0114 S13, FXIIDef (con)",0.99
same,Screen,"[2]; sample 0114 S13, FXIIDef (con)",44.9 s
same,Screen (Rs),"[2]; sample 0114 S13, FXIIDef (con)",0.91
same,Confirm,"[2]; sample 0114 S14, FXIIDef (acq)",53.4 s
same,Confirm (Rc),"[2]; sample 0114 S14, FXIIDef (acq)",1.06
same,S/C (NR),"[2]; sample 0114 S14, FXIIDef (acq)",0.94
same,S/C (R),"[2]; sample 0114 S14, FXIIDef (acq)",0.93
same,Screen,"[2]; sample 0114 S14, FXIIDef (acq)",49.4 s
same,Screen (Rs),"[2]; sample 0114 S14, FXIIDef (acq)",1.00
same,Confirm,"[2]; sample 0114 S15, LA Postive",49.7 s
same,Confirm (Rc),"[2]; sample 0114 S15, LA Postive",0.99
same,S/C (NR),"[2]; sample 0114 S15, LA Postive",2.49
same,S/C (R),"[2]; sample 0114 S15, LA Postive",2.45
same,Screen,"[2]; sample 0114 S15, LA Postive",121.8 s
same,Screen (Rs),"[2]; sample 0114 S15, LA Postive",2.46
same,Confirm,"[2]; sample 0114 S16, LA Postive",51.7 s
same,Confirm (Rc),"[2]; sample 0114 S16, LA Postive",1.03
same,S/C (NR),"[2]; sample 0114 S16, LA Postive",2.70
same,S/C (R),"[2]; sample 0114 S16, LA Postive",2.66
same,Screen,"[2]; sample 0114 S16, LA Postive",137.4 s
same,Screen (Rs),"[2]; sample 0114 S16, LA Postive",2.77
same,Confirm,"[2]; sample 0114 S17, LA Postive",49.8 s
same,Confirm (Rc),"[2]; sample 0114 S17, LA Postive",0.99
same,S/C (NR),"[2]; sample 0114 S17, LA Postive",2.19
same,S/C (R),"[2]; sample 0114 S17, LA Postive",2.15
same,Screen,"[2]; sample 0114 S17, LA Postive",107.3 s
same,Screen (Rs),"[2]; sample 0114 S17, LA Postive",2.16
same,Normalized Ratio (NR) of SCT Assay,"[3]; LA positive sample 1:1 diluted with NPP, 1000 ng/ml PPACK, automated mixing study 1:1",1.82
same,Normalized Ratio (NR) of SCT Assay,"[3]; LA positive sample 1:3 diluted with NPP, 1000 ng/ml PPACK, automated mixing study 1:1",1.46
same,Normalized Ratio (NR) of SCT Assay,"[3]; LA positive sample diluted 4-fold with LA negative sample, 1000 nM PPACK (1.08 in the absence of PPACK)",1.46
same,Normalized Ratio (NR) of SCT Assay,"[3]; LA positive sample undiluted, 1000 ng/ml PPACK, automated mixing study 1:1 with NPP/PPACK",2.34
same,Screen-to-Confirm Ratio (R) of SCT Assay,"[3]; LA positive sample, 1000 nM PPACK (1.09 in the absence of PPACK)",1.82
same,NR of dRVVT test,"[4]; LA positive sample 1:1 diluted with NPP, automated mixing study 1:1",1.42
same,NR of dRVVT test,"[4]; LA positive sample 1:3 diluted with NPP, automated mixing study 1:1",1.19
same,NR of dRVVT test,"[4]; LA positive sample undiluted, automated mixing study 1:1 with NPP/PPACK",1.76
same,Screen-to-Confirm Ratio of dRVVT test,"[4]; LA positive sample, increasing PPACK concentrations (from 1.42)",1.58
same,Screen-to-Confirm Ratio of dRVVT test,[5]; increasing PPACK concentrations (from 1.02),0.91
hirudin,Normalized ratio of dRVVT Assay,"[4]; LA positive sample, 200 ng/ml hirudin alone",1.72
same,Normalized ratio of dRVVT Assay,"[4]; LA positive sample, 1000 ng/ml hirudin (1.39 without thrombin inhibitor)",1.81
same,Screen-to-Confirm Ratio of dRVVT Assay,"[4]; LA positive sample, 1000 ng/ml hirudin (1.41 in the absence of hirudin)",2.14
same,Screen-to-Confirm Ratio of dRVVT Assay,[5]; 1000 ng/ml hirudin (1.02 in the absence of hirudin),1.18
